In brackets after ≈: the same amount, converted by molar mass.
How the values were obtained:
[1] = test system: S. aureus ATCC 13709 (Smith diffuse); assay: Murine model for lethal bacteremic peritonitis (septicemia); format: in vivo, mice; settings: Staphylococcus aureus, ATCC13709, sc; mice, S. aureus ATCC 13709 ip; subcutaneous treatment at 0 and 2 hrs post-challenge; probit method; no unit given for ED50 (doses in mg/kg); read-out: Efficacy in murine septicemia ED50
Method: 10 mice/group were injected intraperitoneally with 2.98x10^7 cfu S. aureus ATCC 13709 (Smith diffuse) and treated at 0 and 2hrs post-challenge with serial two-fold doses of new cephalosporin antibiotic, imipenem and vancomycin subcutaneously in order to determine the ED50. Male Swiss-Webster mice weighing originally 24.2 - 26.1 g were obtained from Charles Rivers Labs, Hollister, CA. Mice were housed 10 per cage and given free access to water and mouse chow.
Staphylococcus aureus ATCC 13709 (Smith diffuse) was grown overnight at 37 °C in Brain-heart Infusion broth (BHIB). The following morning, it was subcultured to fresh BHIB and incubated for 4-5h at 37 °C. The log-phase growth cells were washed once with physiological saline and adjusted to the desired concentration by correlation of absorbency at OD 600 nm with predetermined plate counts (NCCLS, 1994). The cell suspension was mixed with an equal volume of sterile 14% hog-gastric mucin (2). Inoculum was kept in an ice bath until used (<1h).
Mice were challenged via an injection of 0.5 mL bacterial suspension intraperitoneally. The bacterial challenge was 2.98 x 10^7 cfu/mouse.
Imipenem (Primaxin IV; Lot 7294A), vancomycin (Vancocin; Lot 8MU60W), and new cephalosporin antibiotic were prepared by serial two-fold dilutions to concentrations of 0.078 - 0.005 mg/mL, 1.2 - 0.075 mg/mL, 0.3 - 0.02 mg/mL, 0.3 - 0.02 mg/mL and 0.3 - 0.02 mg/mL respectively in sterile water (1). All antibiotics were administered subcutaneously in 0.1 mL volumes at 0 and 2 hours post-challenge. Concentrations of all compounds are based on the weight of the bioactive ingredients.
The 50% effective dose (ED50) was calculated by the probit method (3) utilizing a program entitled Probit (Nycomed-Salutar).

[2] = test system: S. aureus ATCC 29213; assay: Broth microdilution MIC (NCCLS); format: cell-based; settings: Staphylococcus aureus, ATCC29213, Mueller-Hinton Broth, 24 h at 35 °C
Method: (§1) Compounds were evaluated for antimicrobial activity against a panel of bacterial strains using a broth microdilution assay performed as recommended by the NCCLS (1). The minimum inhibitory concentration (MIC) was defined as the lowest concentration of drug which prevented the growth of the bacteria. The following 16 organisms constituted the primary panel of evaluation:
(§2) For this primary panel, the assay was performed in Mueller-Hinton Broth (MHB) with a final bacterial inoculum of 5 x 10^5 CFU/mL (from an early-log phase culture) and a final volume of 100 µL. Control drugs, including imipenem, vancomycin, Penicillin G, dicloxacillin (vs. MSSA ATCC29213 only), and new compounds were prepared at a concentration equivalent to 2-fold the desired final concentration. Dilution of compounds were prepared directly in the plates by serial 2-fold dilution using a multichannel pipette. Positive and negative growth control were included in each plate.
(§3) The bacterial inocula were prepared as follows. For each strain one isolated colony was used to inoculate a volume of 8 mL of Mueller-Hinton broth and these cultures were incubated overnight (20h) at 35 °C in a shaking incubator. At the exception of Enterococcus strains, culture were then diluted 1:10 and allowed to grow for an additional one hour at 35 °C in a shaking incubator. The inocula were prepared by diluting the early log-phase (1h) cultures 1:1000 with fresh Mueller-Hinton broth. E. faecium and E. faecalis were prepared by diluting overnight cultures 1:333 and 1:666, respectively, with fresh Mueller-Hinton broth . A volume of 50 µL of the inocula was added to each well. […] The exact inocula were determined by applying […] of 10-fold serial dilution of the bacterial suspensions on TSA. After overnight incubation at 35 °C, colony forming units were manually counted.
(§4) Microtiter plates were incubated during 24 h at 35 °C and were read using a microtiterplate reader (Molecular Devices) at 650 nm as well as by visual observation using a microtiterplate reading mirror.

[3] = test system: E. faecium ATCC 35667; assay: Broth microdilution MIC (NCCLS); format: cell-based; settings: Enterococcus faecium, ATCC35667, Mueller-Hinton Broth, 24 h at 35 °C
Method: as §1, §2, §3, §4

[4] = test system: E. faecium A491 (Amp^R); assay: Broth microdilution MIC (NCCLS); format: cell-based; settings: Enterococcus faecium, Mueller-Hinton Broth, 24 h at 35 °C
Method: as §1, §2, §3, §4

[5] = test system: E. faecalis ATCC 29212; assay: Broth microdilution MIC (NCCLS); format: cell-based; settings: Enterococcus faecalis, ATCC29212, Mueller-Hinton Broth, 24 h at 35 °C
Method: as §1, §2, §3, §4

[6] = test system: S. aureus 76 (Meth^R)(lac^+); assay: Broth microdilution MIC (NCCLS); format: cell-based; settings: Staphylococcus aureus, Mueller-Hinton Broth, 24 h at 35 °C
Method: as §1, §2, §3, §4

[7] = test system: P. aeruginosa ATCC 27853; assay: Broth microdilution MIC (NCCLS); format: cell-based; settings: Pseudomonas aeruginosa, ATCC27853, Mueller-Hinton Broth, 24 h at 35 °C
Method: as §1, §2, §3, §4

[8] = test system: S. aureus PC1 (Meth^S)(lac^+); assay: Broth microdilution MIC (NCCLS); format: cell-based; settings: Staphylococcus aureus, 24 h
Method: as §1, §2, §3, §4

[9] = test system: S. haemolyticus 05 (Meth^R); assay: Broth microdilution MIC (NCCLS); format: cell-based; settings: Staphylococcus haemolyticus, Mueller-Hinton Broth, 24 h at 35 °C
Method: as §1, §2, §3, §4

[10] = test system: S. aureus ATCC 13709 (Meth^S); assay: Broth microdilution MIC (NCCLS); format: cell-based; settings: Staphylococcus aureus, ATCC13709, Mueller-Hinton Broth, 24 h at 35 °C
Method: as §1, §2, §3, §4

[11] = test system: S. aureus Col8A(Meth^S)(lac^-); assay: Broth microdilution MIC (NCCLS); format: cell-based; settings: Staphylococcus aureus, Mueller-Hinton Broth, 24 h at 35 °C
Method: as §1, §2, §3, §4

[12] = test system: S. aureus Spain #356 (Meth^R); assay: Broth microdilution MIC (NCCLS); format: cell-based; settings: Staphylococcus aureus, Mueller-Hinton Broth, 24 h at 35 °C
Method: as §1, §2, §3, §4

[13] = test system: E. faecalis VanB (Van^R); assay: Broth microdilution MIC (NCCLS); format: cell-based; settings: Enterococcus faecalis, Mueller-Hinton Broth, 24 h at 35 °C
Method: as §1, §2, §3, §4

[14] = test system: E. coli ATCC25992; assay: Broth microdilution MIC (NCCLS); format: cell-based; settings: Escherichia coli, Mueller-Hinton Broth, 24 h at 35 °C
Method: as §1, §2, §3, §4

[15] = test system: S. aureus ATCC 33593 (Meth^R); assay: Broth microdilution MIC (NCCLS); format: cell-based; settings: Staphylococcus aureus, ATCC33593, Mueller-Hinton Broth, 24 h at 35 °C
Method: as §1, §2, §3, §4

[16] = test system: E. faecium VanA (Van^R); assay: Broth microdilution MIC (NCCLS); format: cell-based; settings: Enterococcus faecium, Mueller-Hinton Broth, 24 h at 35 °C
Method: as §1, §2, §3, §4

[17] = In vitro stability of compounds in rat serum; format: in vitro ADME; settings: % loss after 60 min exposure to rat serum as determined by HPLC; 37 °C
Method: In general, compounds from the class of 7-acylamino-3-heteroarylthio-3-cephem carboxylic acids have higher chemical reactivity and lower stability towards chemical or enzymatic decomposition than most typical cephalosporins. […] Results shown in Table 2 represent percentage loss of the initial amount of cephalosporin compound upon 60 min incubation in rat serum.
Procedure for measuring degree of degradation of cephalosporin compounds in rat serum was as follows:
Fresh control rat serum (heparinized and stored frozen) is preincubated at 37 °C for 15 min in a shaking water bath. pH is measured using test strips. 25 µL of a 2 mg/mL solution cephalosporin compound (in water) of is then added to each matrix to make 1000 µL. Solutions were incubated at 37 °C. 100ul of solution was taken out at time = 0, 15, 30, and 60 min post dose and added 200 µL 4% trichloroacetic acid, vortexed, and centrifuged for 10 min at 14,000 rpm in an Eppendorfmicrocentrifuge. 25 µL of each supernatant was injected onto HPLC. Experiment was repeated using 25 µL of a 0.2 mg/mL cephalosporin compound. Degradation is measured as the percentage of HPLC peak area at time t relative to peak area at time 0.
HPLC conditions: Beckman Ultrasphere C18 column. 5u. 4.6mm x 25cm. 1 mL/min of 95% 0.1 M ammonium acetate, pH 6, 5% ACN going to 75% buffer/organic over 20min. UV monitored at 254 and 280 nm.

`C[C@@H](O)[C@H]1C(=O)N2C(C(=O)O)=C(SCCN=CN)C[C@H]12` [Imipenem, reference compound] showed an ED50 [1] of 0.07 mg/kg, an MIC [2] of at most 0.008 µg/mL and an MIC [3] of 4 µg/mL (≈ 13.4 µM). The MIC [4] was over 128 µg/mL, the MIC [5] was at most 0.25 µg/mL and the MIC [6] was 32 µg/mL (≈ 107 µM). The MIC [7] was 1 µg/mL (≈ 3.34 µM), the MIC [8] was 0.015 µg/mL (≈ 0.0501 µM) and the MIC [9] was 64 µg/mL (≈ 214 µM). For the same compound, the MIC [10] was at most 0.008 µg/mL, the MIC [11] was 0.015 µg/mL (≈ 0.0501 µM) and the MIC [12] was 32 µg/mL (≈ 107 µM). It also gave an MIC [13] of 0.5 µg/mL (≈ 1.67 µM), an MIC [14] of at most 0.25 µg/mL and an MIC [15] of 32 µg/mL (≈ 107 µM). It also gave an MIC [16] of 4 µg/mL (≈ 13.4 µM) and a degraded at 1 h [17] of 20%.

Reference: patent EP1222194B1, “7-ACYLAMINO-3-HETEROARYLTHIO-3-CEPHEM CARBOXYLIC ACID ANTIBIOTICS AND PRODRUGS THEREOF” (priority 1999, dated 2001)
